Patent publication US12644117B2, “Method of enabling pooled-library based nucleic acid constructs screening” (priority 2019, dated 2026)

System: recombinant ACMNPV baculovirus
Experiment: Baculovirus spreading in Sf9 insect cells infected with YFP-expressing recombinant baculovirus, read by fluorescence microscopy
Assay type: cell-based, Spodoptera Frugiperda
Method: A recombinant ACMNPV baculovirus was generated by homologous recombination and expressed a target fluorescent protein. The fluorescent protein was the Yellow Fluorescent Protein (YFP) from the organism Aequorea Victoria. • Three hours before infection 0.5 million Sf9 insect cells (ThermoFisher) were seeded into two wells of a 6 well-plate (ThermoFisher). Sf9 cells are cultivated in sf900 II media (ThermoFisher). • The initial viral stock titer was estimated to be approximately 1 million baculoviruses per milliliter. The recombinant baculovirus was added to the cells to reach a MOI of approximately 0.02. The added virus volume per well was 10 micolitre. The virus was resuspended in sf900 II media (ThermoFisher). • Cells were incubated in a 27° C. incubator. Four hours after infection, attached cells are washed with PBS to remove baculoviruses which have not penetrated into cells. The wash consisted of three times with 1 ml per cell of PBS media. • Chloroquine diphosphate salt (CC6628 from Sigma) was added to a final concentration of 0.8 mM. In the control condition insect cell media without chloroquine was added to the cells. Cells were incubated in a 27° C. incubator.
Fluorescence microscopy was performed 2 days after infection (FIG. 2A).
In the presence of chloroquine, the proportion of fluorescent cells is constant despite an increase of fluorescence intensity by cell (FIG. 2B), indicating accumulation of expressed YFP protein and virus without increasing the number of infected cells. […] In addition the virus produced high quality protein correctly folded within the individual cells.

[1] = MOI approximately 0.02, chloroquine 0.8 mM, five days after infection (FIG. 2B)

With `CCN(CC)CCCC(C)Nc1ccnc2cc(Cl)ccc12` (stereo not drawn) [chloroquine, Chloroquine] the “proportion of fluorescent cells” value (MOI approximately 0.02, chloroquine 0.8 mM added four hours after infection, 2 days after infection (FIG. 2A)) was “around 1%”, the “fluorescence intensity by cell (accumulation of expressed YFP protein)” value [1] was “increase” and the “proportion of fluorescent cells” value [1] was “constant”.
